Legend:
[1] = Stability of MTAs in liquid solvents (degradation rate); type: physicochemical
Procedure: Liquid solvents were also tested for their ability to stabilize representative MTAs SkQ1 and SkQR1. The solvents tested were water solutions of glycerol (10% to 100%), 50% lactulose, and 1,2-propylene glycol (10% to 100%, at 60° C.). Some representative results are shown below (Table 1).

[2] = Accelerated decay experiment of SkQ1H2/ascorbic acid powder; type: physicochemical; settings: powder 95% ascorbic acid and 5% SkQ1H2
Procedure: SkQ1H2, a reduced quinole form of SkQ, was prepared as follows: 10 ml SkQ1H2 solution (with concentration 1 mg/ml) in ethanol was thoroughly mixed with 200 mg ascorbic acid and then vacuum dried.

LPS-induced septic shock = experiment: LPS/D-GalN-induced septic shock, survival; type: in vivo, BALB/c mice
Procedure: Induction of the septic shock was performed as follows: 43 male BALB/c mice with free food and water access were divided onto 4 experimental groups. Group “K” got water without drugs. Groups “SkQ 50,” “SkQ 250,” and “SkQ 1250” were daily parenterally treated with pharmaceutical form of SkQ1 in water comprising 50 nmol/kg, 250 nmol/kg, and 1250 nmol/kg accordingly. After 3 weeks of SkQ1 treatment animals were intraperitonially injected with […] LPS and 700 mg/kg D-galactosamine (D-GalN) inducing septic shock leading to death of 50% of untreated control animals (LD50 dose). Death of animals were registered after 4 d of septic shock induction.

ICAM-1 mRNA expression = ICAM-1 mRNA expression induced by TNF-α in EAhy926 cells (real-time PCR); type: cell-based, human; settings: 0.2 nM for 4 d; TNF-α 0.05 ng/ml for 4 h
Source text: (§1) The effects of SkQ1 on ICAM-1 mRNA expression and cytokines (IL-6, IL-8) protein secretion induced by TNF-α in EAhy926 human endothelial cells (ATCC collection; catalog number CRL-2922) were examined. TNF-α is a central proinflammatory cytokine stimulating expression of cell adhesion molecules and many inflammatory cytokines. Anti-inflammatory properties of many drugs often rely on their ability to inhibit expression of pro-inflammatory cytokines induced by TNF-α using EAhy926 endothelial cells (Edgell et al. (1983) Proc. Natl. Acad. Sci. USA, 80:3734-7; Lombardi et al. (2009) Eur. J. Cell. Biol., 88:731-42; Manea et al. (2010) Cell Tissue Res., 340:71-9).
(§2) 300,000 cells were plated on 60 mm^2 culture dishes and after attachment were treated with an SkQ1 solution (0.2 nM in DMEM medium with 10% fetal serum) for 4 d, and then stimulated with TNF-α (0.05 ng/ml for 4 h for ICAM-1 or 5 ng/ml for 15 h for cytokines, respectively). ICAM-1 mRNA expression was determined by real-time PCR (Okada et al. (2005) Invest. Ophtalmol. Vis. Sci., 46:4512-8). Secretion of IL-6 and IL-8 was evaluated by ELISA (Toma et al. (2009) Biochem. Biophys. Res. Commun., 390:877-82; Volanti et al. (2002) Photochem. Photobiol., 75:36-45.) The data is shown as means±S.E. at least for 3 separate experiments.

[3] = test system: cytokines (IL-6, IL-8) protein secretion; experiment: IL-6, IL-8 protein secretion induced by TNF-α in EAhy926 cells (ELISA); type: cell-based, human; settings: 0.2 nM for 4 d; TNF-α 5 ng/ml for 15 h
Source text: as §1, §2

ICAM-1 mRNA = ICAM-1 mRNA level in aortas of old mice; type: in vivo; settings: 24 months old C57Black/CBA mice; SkQ1 in drinking water for 7 months
Procedure: As described above in Example 7A, above, the expression of ICAM-1 is elevated under many pathological vascular conditions. SkQ1 efficacy in reducing ICAM-1 expression in vivo was tested on mice. 30 hybrid male C57Black/CBA mice were divided into 3 experimental groups (10 animals in each group) at the beginning of the experiment. The group “Young mice” included mice at the age of 6 months. Groups “Old mice” and “Old mice, SkQ1” included mice at the age of 24 months. The group “Old mice, SkQ1” had free access to drinking water with 100 nM water-dissolved SkQ1 per 1 kg of body weight for 7 months. After this period, the animals were decapitated. Aortas were excised, and total RNA was isolated using […] Blood and Tissue kit (QIAGEN), reverse-transcribed into cDNA, and used for quantitative real-time PCR analysis of ICAM-1 mRNA level. For the normalization procedure the average geometry of expression levels of housekeeping genes GAPDH and RPL32 was used Data are shown as means±S.E.M.

CC1=C(C)C(=O)C(CCCCCCCCCC[P+](c2ccccc2)(c2ccccc2)c2ccccc2)=CC1=O [SkQ1]
Degradation rate, percent per day ([1]; 400 mkM in 10% 1,2-propylene glycol, at 60° C.): 0.47 percent per day | Degradation rate, percent per day ([1]; 400 mkM in 10% Glycerol): 0.61 percent per day | Degradation rate, percent per day ([1]; 400 mkM in 20% Glycerol): 0.51 percent per day | Degradation rate, percent per day ([1]; 400 mkM in 30% Glycerol): 0.53 percent per day | Degradation rate, percent per day ([1]; 400 mkM in 40% Glycerol): 0.91 percent per day | Degradation rate, percent per day ([1]; 400 mkM in 50% 1,2-propylene glycol, at 60° C.): 0.06 percent per day | Degradation rate, percent per day ([1]; 400 mkM in 50% Glycerol): 1.54 percent per day | Degradation rate, percent per day ([1]; 400 mkM in 50% lactulose): 9.01 percent per day | Degradation rate, percent per day ([1]; 400 mkM in 60% Glycerol): 1.92 percent per day | Degradation rate, percent per day ([1]; 400 mkM in 70% Glycerol): 2.4 percent per day | Degradation rate, percent per day ([1]; 400 mkM in 80% Glycerol): 3.2 percent per day | Degradation rate, percent per day ([1]; 400 mkM in 90% Glycerol): 4.18 percent per day | Degradation rate, percent per day ([1]; 400 mkM in 100% 1,2-propylene glycol, at 60° C.): 0.18 percent per day | SkQ1 purity ([2]; after storage for 12 d at 60° C.): 95.1% | loss from the initial concentration of the active compound ([2]; calculated for storage for 1 year at 4° C.): approximately 3.5% | SkQ1 purity ([2]; initial): 98.7% | survival of mice following LPS/D-GalN treatment (LPS-induced septic shock; SkQ1 in water 50, 250, 1250 nmol/kg daily parenterally for 3 weeks, death registered after 4 d): significantly improved | survival, significance of the effect (LPS-induced septic shock; dose of 50 nmol/kg, p=0.03): statistically significant effect | expression of ICAM-1 (ICAM-1 mRNA expression): prevents excessive expression | expression of inflammatory cytokines (IL-6, IL-8) [3]: prevents excessive expression | ICAM-1 mRNA levels in aorta of treated old mice compared to the control group (ICAM-1 mRNA): significantly lowered

— patent US9572890B2, “Oral formulations of mitochondrially-targeted antioxidants and their preparation and use” (MITOTECH SA, priority 2011, dated 2017)
